Experimental findings from ChEMBL document CHEMBL3091308, “Bisindole alkaloids with neural anti-inflammatory activity from Gelsemium elegans” (J Nat Prod, 2013) are described below.

Series [1] has as its system A549. Kind of series: Cytotoxicity against human A549 cells at 10 uM after 72 hrs by MTT assay. As to conditions: a549, 72 h. It counts as cell-based. On the technique in general: Tetrazolium assays rely on reduction of a dye to a coloured formazan, in cell work by metabolically active cells.
Series [2] relates to A2780. Kind of series: Cytotoxicity against human A2780 cells at 10 uM after 72 hrs by MTT assay. As to conditions: a2780, 72 h. In kind it is cell-based.
A short description of series [3]: Cytotoxicity against human BGC823 cells at 10 uM after 72 hrs by MTT assay. In kind it is cell-based. As to conditions: bgc-823, 72 h.
A short description of series [4]: Cytotoxicity against human HCT8 cells at 10 uM after 72 hrs by MTT assay. It counts as cell-based. As to conditions: hct-8, 72 h.
Series [5] is described as follows: Cytotoxicity against human Bel7402 cells at 10 uM after 72 hrs by MTT assay. In kind it is cell-based. As to conditions: bel-7402, 72 h.
Series [6] can be described thus: Cytotoxicity against […] cells at 50 uM after 72 hrs by MTT assay. In kind it is cell-based. As to conditions: bv-2, 72 h.
In series [7] the test system is RAW. Kind of series: Cytotoxicity against mouse RAW cells at 50 uM after 72 hrs by MTT assay. In kind it is cell-based.
The nature of series [8]: (§1) Antiinflammatory activity in […] cells assessed as inhibition of LPS-induced NO production measured 24 hrs post LPS-challenge by spectrophotometry. In kind it is functional, cell-based. As to conditions: BV-2, 24 h.
The subject of series [9] is BV-2. The series is described as §1. In kind it is functional, cell-based.

pIC50: −log10 of the molar value.

As for `CON1C(=O)[C@@]2(C[C@@H]3N=C([C@@](C)(O)C[C@@H](C)[C@@]45ON4[C@H]4C[C@@]6(C(=O)N(OC)c7ccccc76)[C@H]6C[C@@H]5[C@@H]4CO6)[C@@H]4C[C@H]2OC[C@H]34)c2ccccc21` (some centres undefined), the Activity result in [1], in series [2], in series [3], in series [4], in series [5] and in [6] was “Non-toxic” each time. For the same compound, in [7], the Activity result is “Non-toxic”.
With `C/C=C1\CN2C(=O)[C@]3(c4cc(-c5cc([C@@]67C[C@H]8[C@H]9CO[C@@H]6C[C@H]9/C(=C/C)CN8C7=O)c(N)cc5OC)c(OC)cc4N)C[C@H]2[C@H]2CO[C@@H]3C[C@@H]12`, the Activity entry in [1], in [2], in series [3], in series [4], in [5] and in series [6] was “Non-toxic” each time. Moreover, the Activity result in series [7] is listed as “Non-toxic”.
The pIC50 is −log10 of the IC50, conventionally taken in molar units. As for `COc1cc(/C=C/C(=O)CC(=O)/C=C/c2ccc(O)c(OC)c2)ccc1O` [CURCUMIN], the pIC50 in series [8] is 5.41.
With `CON1C(=O)[C@@]2(C[C@@H]3N=C([C@](C)(O)C[C@@H](C)[C@@]45ON4[C@H]4C[C@@]6(C(=O)N(OC)c7ccccc76)[C@H]6C[C@@H]5[C@@H]4CO6)[C@@H]4C[C@H]2OC[C@H]34)c2ccccc21` (some centres undefined), the negative-log IC50 (pIC50) in series [8] is 4.99. The inhibition result in series [9] is “Dose-dependent effect”. For the same compound, the Activity entry in [1], in series [2], in series [3], in [4], in series [5] and in series [6] was “Non-toxic” in each case. The Activity entry in series [7] is given as “Non-toxic”.
